Test results from patent publication US10294202B2, “Pyrrolidinones as herbicides” (FMC Corporation, priority 2013, dated 2019).

Key:
[1] = tested on: nutsedge, yellow; assay: Test C pre-/postemergence herbicide test; type: in vivo, Cyperus esculentus
Method in brief: (§1)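 Compound solutions contained surfactant in a non-phytotoxic solvent. These were sprayed onto pots of loam/sand sown with seeds, and onto young plants (2 to 18 cm, 1- to 4-leaf) in sphagnum peat–vermiculite mix. Visual injury scores (0 none, 100 complete control) were recorded after 13 to 15 days.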

[2] = tested on: oat, wild; assay: Test C pre-/postemergence herbicide test; type: in vivo, Avena fatua; settings: Postemergence
Method in brief: as §1

[3] = tested on: ducksalad; assay: Test B flooded paddy test; type: in vivo, Heteranthera limosa; settings: 500 g ai/ha, Flood; scale of 0 to 100 where 0 is no effect and 100 is complete control
Method in brief: (§2)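 Scoring: visual, compared with untreated controls, 0 = no effect through 100 = complete control, taken 13 to 15 days after treatment in the greenhouse. Compounds had been added to paddy water over soil flooded 3 cm deep at the plants' 2-leaf stage.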

[4] = tested on: pigweed; assay: Test C pre-/postemergence herbicide test; type: in vivo, Amaranthus retroflexus
Method in brief: as §1

[5] = tested on: blackgrass; assay: Test C pre-/postemergence herbicide test; type: in vivo, Alopecurus myosuroides
Method in brief: as §1

[6] = tested on: rice; assay: Test B flooded paddy test; type: in vivo, Oryza sativa; settings: 500 g ai/ha, Flood; scale of 0 to 100 where 0 is no effect and 100 is complete control
Method in brief: as §2

[7] = tested on: barnyardgrass; assay: Test B flooded paddy test; type: in vivo, Echinochloa crus-galli; settings: 500 g ai/ha, Flood; scale of 0 to 100 where 0 is no effect and 100 is complete control
Method in brief: as §2

[8] = tested on: ragweed; assay: Test C pre-/postemergence herbicide test; type: in vivo, Ambrosia elatior
Method in brief: as §1

[9] = tested on: sedge, umbrella; assay: Test B flooded paddy test; type: in vivo, Cyperus difformis; settings: 500 g ai/ha, Flood; scale of 0 to 100 where 0 is no effect and 100 is complete control
Method in brief: as §2

[10] = tested on: velvetleaf; assay: Test C pre-/postemergence herbicide test; type: in vivo, Abutilon theophrasti
Method in brief: as §1

[11] = tested on: waterhemp; assay: Test C pre-/postemergence herbicide test; type: in vivo, Amaranthus rudis
Method in brief: as §1

[12] = tested on: giant foxtail; assay: Test A pre-/postemergence herbicide test; type: in vivo, Setaria faberii
Method in brief: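 Formulated compound (non-phytotoxic solvent, surfactant) sprayed pre- onto soil of seeded loam/sand pots or post- onto seedlings at 1–2 leaves; ~10 d greenhouse; 0–100 visual control rating versus untreated.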

[13] = tested on: oilseed rape; assay: Test C pre-/postemergence herbicide test; type: in vivo, Brassica napus
Method in brief: as §1

[14] = Postemergence, 31 g ai/ha, scale 0 to 100 (0 no effect, 100 complete control)
[15] = Postemergence, 62 g ai/ha, scale 0 (no effect) to 100 (complete control)
[16] = Postemergence, 125 g ai/ha, scale 0 to 100 (0 no effect, 100 complete control)
[17] = Postemergence, 250 g ai/ha, scale 0 to 100 (0 no effect, 100 complete control)
[18] = Preemergence, 31 g ai/ha, scale 0 to 100, 0 is no effect and 100 is complete control
[19] = Preemergence, 62 g ai/ha, scale 0 to 100 (0 no effect, 100 complete control)
[20] = Preemergence, 125 g ai/ha, scale 0 to 100
[21] = 31 g ai/ha, scale 0 to 100 (0 no effect, 100 complete control)
[22] = 62 g ai/ha, scale 0 (no effect) to 100 (complete control)
[23] = 125 g ai/ha, scale 0 to 100 (0 no effect, 100 complete control)
[24] = 250 g ai/ha, scale 0 to 100 (0 no effect, 100 complete control)
[25] = Postemergence, 125 g ai/ha, visual rating on 0 to 100 scale (0 no effect, 100 complete control), approx. 10 days
[26] = Postemergence, 500 g ai/ha, 0 to 100 scale (0 no effect, 100 complete control)
[27] = Preemergence, 125 g ai/ha, 0 to 100 scale where 0 is no effect and 100 is complete control
[28] = Preemergence, 500 g ai/ha, visual rating on 0 to 100 scale (0 no effect, 100 complete control)

SMILES: O=C1NCC(c2cccc(C(F)(F)F)c2)C1C(=O)Nc1ccc(F)c(F)c1F (stereo not drawn) [Compound 315]
- Plant response rating, Nutsedge, Yellow [1, 14]: 0
- Plant response rating, Nutsedge, Yellow [1, 15]: 0
- Plant response rating, Nutsedge, Yellow [1, 16]: 0
- Plant response rating, Nutsedge, Yellow [1, 17]: 0
- Nutsedge, Yellow plant response rating [1, 18]: 0
- Nutsedge, Yellow plant response rating [1, 19]: 0
- Plant response rating, Nutsedge, Yellow [1, 20]: 20
- Plant response rating (scale of 0 to 100), Nutsedge, Yellow ([1]; Preemergence, 250 g ai/ha): 20
- Plant response rating, Oat, Wild [2, 21]: 0
- Plant response rating, Oat, Wild [2, 22]: 0
- Plant response rating, Oat, Wild [2, 23]: 0
- Plant response rating, Oat, Wild [2, 24]: 0
- Plant response rating, Ducksalad [3]: 100
- Plant response rating, Pigweed [4, 14]: 25
- Plant response rating, Pigweed [4, 15]: 65
- Plant response rating, Pigweed [4, 16]: 65
- Plant response rating, Pigweed [4, 17]: 80
- Pigweed plant response rating [4, 18]: 45
- Pigweed plant response rating [4, 19]: 60
- Plant response rating, Pigweed [4, 20]: 75
- Plant response rating (scale of 0 to 100), Pigweed ([4]; Preemergence, 250 g ai/ha): 85
- Plant response rating, Blackgrass [5, 14]: 0
- Plant response rating, Blackgrass [5, 15]: 0
- Plant response rating, Blackgrass [5, 16]: 30
- Plant response rating, Blackgrass [5, 17]: 25
- Blackgrass plant response rating [5, 18]: 60
- Blackgrass plant response rating [5, 19]: 60
- Plant response rating, Blackgrass [5, 20]: 65
- Plant response rating (scale of 0 to 100), Blackgrass ([5]; Preemergence, 250 g ai/ha): 85
- Plant response rating, Rice [6]: 15
- Plant response rating, Barnyardgrass [7]: 70
- Plant response rating, Ragweed [8, 14]: 0
- Plant response rating, Ragweed [8, 15]: 20
- Plant response rating, Ragweed [8, 16]: 65
- Plant response rating, Ragweed [8, 17]: 70
- Ragweed plant response rating [8, 19]: 20
- Plant response rating, Ragweed [8, 20]: 50
- Plant response rating (scale of 0 to 100), Ragweed ([8]; Preemergence, 250 g ai/ha): 80
- Plant response rating, Sedge, Umbrella [9]: 0
- Plant response rating, Velvetleaf [10, 14]: 10
- Plant response rating, Velvetleaf [10, 15]: 25
- Plant response rating, Velvetleaf [10, 16]: 30
- Plant response rating, Velvetleaf [10, 17]: 55
- Velvetleaf plant response rating [10, 19]: 30
- Plant response rating, Velvetleaf [10, 20]: 40
- Plant response rating (scale of 0 to 100), Velvetleaf ([10]; Preemergence, 250 g ai/ha): 50
- Plant response rating, Waterhemp [11, 14]: 50
- Plant response rating, Waterhemp [11, 15]: 60
- Plant response rating, Waterhemp [11, 16]: 60
- Plant response rating, Waterhemp [11, 17]: 65
- Waterhemp plant response rating [11, 19]: 75
- Plant response rating, Waterhemp [11, 20]: 85
- Plant response rating (scale of 0 to 100), Waterhemp ([11]; Preemergence, 250 g ai/ha): 85
- Plant response rating, Foxtail, Giant [12, 25]: 90
- Plant response rating, Foxtail, Giant [12, 26]: 90
- Plant response rating, Foxtail, Giant [12, 27]: 90
- Foxtail, Giant plant response rating [12, 28]: 90
- Plant response rating, Oilseed Rape [13, 14]: 0
- Plant response rating, Oilseed Rape [13, 15]: 0
- Plant response rating, Oilseed Rape [13, 16]: 0
- Plant response rating, Oilseed Rape [13, 17]: 10
- Oilseed Rape plant response rating [13, 18]: 5
- Oilseed Rape plant response rating [13, 19]: 30
- Plant response rating, Oilseed Rape [13, 20]: 85
- Plant response rating (scale of 0 to 100), Oilseed Rape ([13]; Preemergence, 250 g ai/ha): 80

SMILES: O=C1NCC(c2cccc(C(F)(F)F)c2)C1C(=O)Nc1cccc(Cl)c1F (stereo not drawn) [Compound 316]
- Plant response rating, Nutsedge, Yellow [1, 14]: 0
- Plant response rating, Nutsedge, Yellow [1, 15]: 0
- Plant response rating, Nutsedge, Yellow [1, 16]: 0
- Plant response rating, Nutsedge, Yellow [1, 17]: 0
- Nutsedge, Yellow plant response rating [1, 18]: 0
- Nutsedge, Yellow plant response rating [1, 19]: 0
- Plant response rating, Nutsedge, Yellow [1, 20]: 0
- Plant response rating (scale of 0 to 100), Nutsedge, Yellow ([1]; Preemergence, 250 g ai/ha): 70
- Plant response rating, Oat, Wild [2, 21]: 0
- Plant response rating, Oat, Wild [2, 22]: 0
- Plant response rating, Oat, Wild [2, 23]: 5
- Plant response rating, Oat, Wild [2, 24]: 30
- Plant response rating, Ducksalad [3]: 100
- Plant response rating, Pigweed [4, 14]: 15
- Plant response rating, Pigweed [4, 15]: 50
- Plant response rating, Pigweed [4, 16]: 60
- Plant response rating, Pigweed [4, 17]: 75
- Pigweed plant response rating [4, 18]: 25
- Pigweed plant response rating [4, 19]: 25
- Plant response rating, Pigweed [4, 20]: 45
- Plant response rating, Blackgrass [5, 14]: 0
- Plant response rating, Blackgrass [5, 15]: 0
- Plant response rating, Blackgrass [5, 16]: 0
- Plant response rating, Blackgrass [5, 17]: 0
- Blackgrass plant response rating [5, 18]: 0
- Blackgrass plant response rating [5, 19]: 0
- Plant response rating, Blackgrass [5, 20]: 30
- Plant response rating (scale of 0 to 100), Blackgrass ([5]; Preemergence, 250 g ai/ha): 60
- Plant response rating, Rice [6]: 0
- Plant response rating, Barnyardgrass [7]: 60
- Plant response rating, Ragweed [8, 14]: 45
- Plant response rating, Ragweed [8, 15]: 0
- Plant response rating, Ragweed [8, 16]: 35
- Plant response rating, Ragweed [8, 17]: 65
- Ragweed plant response rating [8, 19]: 0
- Plant response rating, Ragweed [8, 20]: 10
- Plant response rating, Sedge, Umbrella [9]: 0
- Plant response rating, Velvetleaf [10, 14]: 0
- Plant response rating, Velvetleaf [10, 15]: 0
- Plant response rating, Velvetleaf [10, 16]: 45
- Plant response rating, Velvetleaf [10, 17]: 35
- Velvetleaf plant response rating [10, 19]: 10
- Plant response rating, Velvetleaf [10, 20]: 10
- Plant response rating, Waterhemp [11, 14]: 10
- Plant response rating, Waterhemp [11, 15]: 10
- Plant response rating, Waterhemp [11, 16]: 10
- Plant response rating, Waterhemp [11, 17]: 55
- Waterhemp plant response rating [11, 19]: 35
- Plant response rating, Waterhemp [11, 20]: 35
- Plant response rating, Foxtail, Giant [12, 25]: 90
- Plant response rating, Foxtail, Giant [12, 26]: 90
- Plant response rating, Foxtail, Giant [12, 27]: 90
- Foxtail, Giant plant response rating [12, 28]: 90
- Plant response rating, Oilseed Rape [13, 14]: 0
- Plant response rating, Oilseed Rape [13, 15]: 0
- Plant response rating, Oilseed Rape [13, 16]: 0
- Plant response rating, Oilseed Rape [13, 17]: 0
- Oilseed Rape plant response rating [13, 18]: 0
- Oilseed Rape plant response rating [13, 19]: 0
- Plant response rating, Oilseed Rape [13, 20]: 20
- Plant response rating (scale of 0 to 100), Oilseed Rape ([13]; Preemergence, 250 g ai/ha): 60
